One test deals with MDA-MB-453. The note with it: 72 h. A digest of the protocol: (§1)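 Rows with a drug sensitivity score of zero were dropped, and EC50 was taken from the fitted percent-inhibition dose-response curve, censored at the highest concentration. Data were normalised on each plate to vehicle and a positive kill control and checked by Z'-factor. The assay seeded breast cancer cell lines in 20 µl onto 384-well plates pre-loaded with compound in 5 µl medium for 72 h, then added 2.5 µl CellTiter-Blue for 2 h at 37 °C and read fluorescence at 560/590 nm.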

The subject of another test is CAL-148. The note with it: 72 h. The procedure, abridged: as §1

For the compound `C[C@@H](Oc1cc(-c2cnn(C3CCNCC3)c2)cnc1N)c1c(Cl)ccc(F)c1Cl` [Crizotinib], the “EC50, CellTiter-Blue viability” value was 4070 nM in the test with MDA-MB-453 and 3570 nM in the test on CAL-148.
In the same order, the values of `C#Cc1cccc(Nc2ncnc3cc(OCCOC)c(OCCOC)cc23)c1` [Erlotinib] are 8340 nM and 3630 nM.
The like results for `Cc1ccc(C(=O)N(CCCN)[C@@H](c2oc3cc(Cl)ccc3c(=O)c2Cc2ccccc2)C(C)C)cc1` were, in that order, 5.76 nM and 5.81 nM.
As to `CO[C@H]1/C=C\C=C(/C)C(=O)NC2=CC(=O)C(NCCN(C)C)=C(C[C@@H](C)C[C@H](OC)[C@H](O)[C@@H](C)/C=C(\C)[C@@H]1OC(N)=O)C2=O` [Alvespimycin], the “EC50, CellTiter-Blue viability” value in the test on MDA-MB-453 turned out to be 11.2 nM; in the test with CAL-148, 27.6 nM.
In the same order, the values of `Cc1ccc(C(=O)Nc2ccc(CN3CCN(C)CC3)c(C(F)(F)F)c2)cc1C#Cc1cnc2cccnn12` [Ponatinib] are 282 nM and 295 nM.
In the same order, the values of `CCC1=C[C@@H]2CN(C1)Cc1c([nH]c3ccccc13)[C@@](C(=O)OC)(c1cc3c(cc1OC)N(C)[C@H]1[C@@](O)(C(=O)OC)[C@H](OC(C)=O)[C@]4(CC)C=CCN5CC[C@]31[C@@H]54)C2` [Vinorelbine] are 9.96 nM and 49.1 nM.
In the same order, the values of `CN[C@@H]1C[C@H]2O[C@@](C)([C@@H]1OC)n1c3ccccc3c3c4c(c5c6ccccc6n2c5c31)C(=O)N[C@H]4O` [UCN-01] are 182 nM and 2350 nM.
On to `COc1cc2nccc(Oc3ccc(NC(=O)C4(C(=O)Nc5ccc(F)cc5)CC4)cc3)c2cc1OC` [Cabozantinib], for which the “EC50, CellTiter-Blue viability” value amounted to 874 nM in the test with MDA-MB-453 and 558 nM with CAL-148.
In the same order, the values of `CNCc1ccc(-c2[nH]c3cc(F)cc4c3c2CCNC4=O)cc1` [Rucaparib] are 6180 nM and 7670 nM.
As to `NC(=O)Nc1cc(-c2cccc(F)c2)sc1C(=O)N[C@H]1CCCNC1` [AZD 7762], the “EC50, CellTiter-Blue viability” value worked out at 232 nM in the test with MDA-MB-453 and 661 nM in the test with CAL-148.

Source of the values: the supplement of paper PMC4862054.
